Assay results from patent US5496703A, “Indirect immunoassay for dioxinlike compounds” (priority 1993, dated 1996).
Several values for one entry are separate records, joined by “and”; a condition that tells them apart may be missing. Equal entries are not always repeated.

Key:
[1] = tested on: total hepatic S-9 protein tyrosylphosphorylation; experiment: ELISA with antiphosphotyrosine monoclonal antibody, total hepatic S-9 protein tyrosylphosphorylation, mice dosed i.p.; assay type: in vivo, C57BL/6 mice
Protocol: (§1) Female, C57BL/6 mice (or any cytochrome P-450IA1 inducible strain) were obtained from Harton Sprague Dawley (Indianapolis, Ind.). Experiments were performed using four to six week old, female mice weighing approximately 16 to 20 g. Mice were fed Prolab RMH 1000 rat, mouse and hamster food (Agway, Cortland, N.Y.) and received tap water ad libitum. All mice were housed three to five per cage and maintained on a photoperiod of 12 hours. Mice were killed 24 hours following an intraperitoneal injection of either corn oil alone or TCDD (Analabs) at 0.25, 0.5, 1, 2, 4, 10, 50 μg/kg, the volume of the injections ranged from 0.1 to 0.2 ml per mouse. Hepatic S-9 fractions were prepared by homogenizing the liver in 3 times the volume of 0.15M KCl. Following a 9000×g centrifugation for 20 minutes, the supernatant (S-9) fraction was carefully removed and quickly frozen for storage at -80° C.
ELISA were performed with 96-well microtiter plates precoated with antigen. S-9 was used as antigen and was prepared as a series of geometric dilutions ranging from 0.4 to 500 μg protein/mL PBS. One-tenth mL from each dilution was promptly pipetted into the wells of a the microtiter plate in quadruplicate. Plates were incubated overnight at 4° C. After washing with 0.05% Tween 20 (polyoxyethylenesorbitan monolaurate) in phosphate buffered saline (PBS), individual wells were saturated with 0.2 mL bovine serum albumin (20 mg/mL in PBS) for 2 hours at 37° C. Wells were then incubated with antiphosphotyrosine monoclonal antibody (1.5 μg/mL ascites fluid) in 1 mg/mL bovine serum albumin and 0.05% Tween 20 in PBS, and bound for 1 to 1.5 hours at 22° C. Incubation with horseradish peroxidase-linked antimouse IgG (Sigma, St. Louis; 0.5×10^3 mg IgG/mL PBS) and subsequent washing was performed as with the original monoclonal antibody. Peroxidase activity was determined after incubation with substrate (0.03% H2 O2 and 1 mM 2,2'-azinodi(d-ethyl-benzthiazoline sulfonic acid-6) dissolved in 100 mM sodium citrate (pH 4.2) at 22° C. At the first visualization of color change A415 values were recorded.

cytochrome P-450IA1 [2] = experiment: Ethoxyresorufin O-deethylase assay (EROD), hepatic S-9, mice dosed i.p.; assay type: in vivo, C57BL/6 mice; conditions: hepatic S-9, i.p., 24 hours after dosing
Protocol: as §1, with “Hepatic S-9 fractions were prepared by homogenizing the liver in 3 times the volume of 0.15M KCl. Following a 9000×g centrifugation for 20 minutes, the supernatant (S-9) fraction was carefully removed and quickly frozen for storage at -80° C.” left out
(§2) Resorufin (hydroxyphenoxazone) and ethoxyresorufin was purchased from Molecular Probes (Junction City, Oreg.). EROD was measured by following the increase in fluorescence due to the formation of resorufin by dealkylation of its ethoxy derivative. […] A baseline of fluorescence was recorded at an excitation wavelength of 530 nm and an emission wavelength of 585 nm. The reaction was started with the addition of NADPH and the dealkylation of the derivative to resorufin was followed by a progressive increase in fluorescence as resorufin was generated. Recordings were standardized by measuring the fluorescence of freshly generated resorufin from resorufin acetate (Sigma, St. Louis, Mo.) prior to each assay. […]

[3] = cited from earlier work
[4] = tested on: AHH and delta-ALA (delta-aminolaevulinic acid) synthetase; conditions: versus other inducers, such as 3-methyl-cholanthrene; cited from earlier work
Ah receptor = conditions: cited from earlier work
cytochrome P-450IA1 [5] = experiment: Ethoxyresorufin O-deethylase assay (EROD), X3 cells; assay type: cell-based, human; conditions: 16 hours
Protocol: The X3 human lymphoblastoma cells (Genetest, Wolburn, Mass.) were grown in 75 cm^2 T-flasks in RPMI 1640 medium (Gibco) containing 9% horse serum. Any cell or cell line expressing cytochrome P-450IA1 may be used. The cells were cultured at 37° C. in a 5% CO2 (balance air) environment. Cells were subcultured by centrifuging (1000 rpm, 3 minutes) and resuspended in fresh media to a volume of 50 mL (at a cell density of 1.0×10^6 cells/mL). The TCDD-corn oil solution was homogenized with serum to a final concentration of 0.10 μg/mL. The TCDD-serum was added at concentrations of 0, 0.02, 0.05, 0.1, 0.5 and 1.0 nM per flask and incubated for 16 hours. […] A final cell count was then determined.
as §2, with “ethoxyresorufin were” for “ethoxyresorufin was”

hepatic Ah receptor = conditions: room temperature, ligand concentration 10^-9 M; cited from earlier work

Clc1cc2c(cc1Cl)Oc1cc(Cl)c(Cl)cc1O2 [TCDD, 2,3,7,8-tetrachlorodibenzo-p-dioxin]
dose of maximal total protein tyrosylphosphorylation ([1]; ELISA, i.p., 24 hours after dosing, female C57BL/6 mice): 2 μg TCDD/kg | ED50 ([1]; Mus musculus, ip, ELISA, i.p., 24 hours after dosing, female C57BL/6 mice, read-out: median effective dose (ED50), total hepatic S-9 pTP): 0.5 µg/kg | separation of ED50s for total protein or 44 kDalton pTP and EROD ([1]; ratio to EROD ED50 (A3), C57BL/6 mice): 10 factor | ED50, cytochrome P-450IA1 expression (EROD) (cytochrome P-450IA1 [2]): 5 μg TCDD/kg | dose of maximal EROD activity (cytochrome P-450IA1 [2]): 50 μg TCDD/kg | difference in whole body half-life between guinea pig and hamster ([3]; guinea pig versus hamster): 3 fold | whole-body half-life ([3]; rodents): on the order of weeks | potency in induction of AHH and delta-ALA synthetase [4]: orders of magnitude more potent | equilibrium dissociation constant (Kd), earlier Scatchard analysis (Ah receptor; almost all Ah receptors studied): nM range | Kd, newer experimental approaches (Ah receptor): pM range | binding affinity to Ah receptor (Ah receptor): binds most strongly | concentration of maximal EROD activity (cytochrome P-450IA1 [5]): 2 nM and 1 nM | EC50 (cytochrome P-450IA1 [5]; probit model): 0.3 nM | saturation half-life of binding (hepatic Ah receptor): less than 1 hour
